From ChEMBL document CHEMBL1151601, “Probing the binding site of the penicillin side-chain based on the tipper-strominger hypothesis” (1993)
Values after ≈ are worked out from the molar mass of the structure shown.

Experiments:
[1] = system: Escherichia coli; experiment: Tested for minimum inhibitory concentration against Escherichia coli DC2; type: functional
[2] = system: Escherichia coli; experiment: Tested for minimum inhibitory concentration against Escherichia coli DCO; type: functional
[3] = system: Escherichia coli; experiment: Concentration required for 90 percent inhibition of [14C]- pen-G binding to Escherichia coli DCO PBP1a 90 KDa
[4] = system: Escherichia coli; experiment: Concentration required for 90 percent inhibition of [14C]- pen-G binding to Escherichia coli DCO PBP1b 90 KDa
[5] = system: Escherichia coli; experiment: Concentration required for 90 percent inhibition of [14C]- pen-G binding to Escherichia coli DCO PBP2 66 KDa
[6] = system: Escherichia coli; experiment: Concentration required for 90 percent inhibition of [14C]- pen-G binding to Escherichia coli DCO PBP3 60 KDa
[7] = system: Escherichia coli; experiment: Concentration required for 90 percent inhibition of [14C]- pen-G binding to Escherichia coli DCO PBP4 49 KDa
[8] = system: Escherichia coli; experiment: Concentration required for 90 percent inhibition of [14C]- pen-G binding to Escherichia coli DCO PBP5/6 40 KDa
[9] = system: Staphylococcus aureus; experiment: Concentration required for 90 percent inhibition of [14C]- pen-G binding to Staphylococcus aureus ATCC 25293 PBP2 80 KDa
[10] = system: Staphylococcus aureus; experiment: Concentration required for 90 percent inhibition of [14C]- pen-G binding to Staphylococcus aureus ATCC 25293 PBP3 75 KDa
[11] = system: Staphylococcus aureus; experiment: Tested for minimum inhibitory concentration against Staphylococcus aureus ATCC 25293; type: functional
[12] = system: Staphylococcus aureus; experiment: Concentration required for 90 percent inhibition of [14C]- pen-G binding to Staphylococcus aureus ATCC 25293 PBP1 87 KDa
[13] = system: Escherichia coli; experiment: Concentration required for 90 percent inhibition of [14C]- pen-G binding to Escherichia coli Penicillin-binding protein (DCO PBP1a 90 KDa)
[14] = system: Escherichia coli; experiment: Concentration required for 90 percent inhibition of [14C]- pen-G binding to Escherichia coli Penicillin-binding protein (DCO PBP1b 90 KDa)
[15] = system: Escherichia coli; experiment: Concentration required for 90 percent inhibition of [14C]- pen-G binding to Escherichia coli Penicillin-binding protein (DCO PBP2 66 KDa)
[16] = system: Escherichia coli; experiment: Concentration required for 90 percent inhibition of [14C]- pen-G binding to Escherichia coli Penicillin-binding protein (DCO PBP3 60 KDa)
[17] = system: Escherichia coli; experiment: Concentration required for 90 percent inhibition of [14C]- pen-G binding to Escherichia coli Penicillin-binding protein (DCO PBP4 49 KDa)
[18] = system: Escherichia coli; experiment: Concentration required for 90 percent inhibition of [14C]- pen-G binding to Escherichia coli Penicillin-binding protein (DCO PBP5/6 40 KDa)
[19] = system: Staphylococcus aureus; experiment: Concentration required for 90 percent inhibition of [14C]- pen-G binding to Staphylococcus aureus ATCC 25293 PBP4 41 KDa
[20] = system: Staphylococcus aureus; experiment: Concentration required for 90 percent inhibition of [14C]- pen-G binding to Staphylococcus aureus Penicillin-binding protein (ATCC 25293 PBP1 87 KDa)
[21] = system: Staphylococcus aureus; experiment: Concentration required for 90 percent inhibition of [14C]- pen-G binding to Staphylococcus aureus Penicillin-binding protein (ATCC 25293 PBP2 80 KDa)

MIC [1] [µg/mL]	MIC [2] [µg/mL]	Concentration [3] [µg/mL]	Concentration [4] [µg/mL]	Concentration [5] [µg/mL]	Concentration [6] [µg/mL]	Concentration [7] [µg/mL]	Concentration [8] [µg/mL]	Concentration [9] [µg/mL]	Concentration [10] [µg/mL]	MIC [11] [µg/mL]	Concentration [12] [µg/mL]	Concentration [19] [µg/mL]	Structure (SMILES)	other results
> 100	> 100	30	100	30	10	10	> 100	100	> 100	> 100	100		CC1(C)S[C@@H]2[C@H](NC(=O)[C@H](CCCCN)c3ccccc3)C(=O)N2[C@H]1C(=O)O	
> 20	> 100	> 100	> 100	> 100	100	100	> 100	> 100	> 100	> 20	100		CC(=O)NCCCC[C@@H](C(=O)N[C@@H]1C(=O)N2[C@@H]1SC(C)(C)[C@@H]2C(=O)O)c1ccccc1	
> 100	> 100	30	100	30	30	30	> 100	100	> 100	20 (≈ 44.7 µM)	30		CC(=O)NCCCC[C@H](C(=O)N[C@@H]1C(=O)N2[C@@H]1SC(C)(C)[C@@H]2C(=O)O)c1ccccc1	
										> 20		> 100	CC1(C)SC2C(NC(=O)Cc3ccccc3)C(=O)N2[C@H]1C(=O)O (stereo partly drawn)	Concentration [13]: > 100 µg/mL; Concentration [14]: > 100 µg/mL; Concentration [15]: > 100 µg/mL; Concentration [16]: 100 µg/mL; Concentration [17]: 100 µg/mL; Concentration [18]: > 100 µg/mL; Concentration [20]: 2 µg/mL; Concentration [21]: > 100 µg/mL
5 (≈ 12.3 µM)	100 (≈ 247 µM)	10	100	30	100	30	> 100	30	> 100	5 (≈ 12.3 µM)	30		CC1(C)S[C@@H]2[C@H](NC(=O)[C@@H](CCCCN)c3ccccc3)C(=O)N2[C@H]1C(=O)O	
0.4 (≈ 1.14 µM)		2	10	0.5	2	0.1	100	2	0.1	1.6 (≈ 4.58 µM)	0.1	> 100	CC1(C)S[C@@H]2[C@H](NC(=O)[C@H](N)c3ccccc3)C(=O)N2[C@H]1C(=O)O [AMPICILLIN]	

Structure (SMILES)	MIC [1] [µg/mL]	MIC [2] [µg/mL]	Concentration [3] [µg/mL]	Concentration [4] [µg/mL]	Concentration [5] [µg/mL]	Concentration [6] [µg/mL]	Concentration [7] [µg/mL]	Concentration [8] [µg/mL]	Concentration [9] [µg/mL]	Concentration [10] [µg/mL]	MIC [11] [µg/mL]	Concentration [12] [µg/mL]	Concentration [19] [µg/mL]	other results
CC1(C)S[C@@H]2[C@H](NC(=O)Cc3ccccc3)C(=O)N2[C@H]1C(=O)O [PENICILLIN G]	12 (≈ 35.9 µM)	50 (≈ 150 µM)	> 100	10	10	2	2	> 100	0.1	0.1	< 0.05	0.1	10	
